Results published in ChEMBL document CHEMBL1201862, “PubChem BioAssay data set” (2004).
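These data come from cells grown in 96-well plates and exposed to compound for 48 hours at five concentrations. Abbreviation: GI50, concentration required for 50% inhibition of growth.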 Active and inactive are the calls of the source. Rule as the data show it: active = GI50 up to about 1.1 µM and inactive = higher.

Experiments:
Test in all cases: growth of human tumour cells (NCI), 48 h
[1] = test system: UACC-257
[2] = test system: MDA-MB-231
[3] = test system: A549
[4] = test system: NCI-H522
[5] = test system: OVCAR-3
[6] = test system: 786-0
[7] = test system: MOLT-4
[8] = test system: K562
[9] = test system: T47D
[10] = test system: COLO 205
[11] = test system: LOX IMVI
[12] = test system: ACHN
[13] = test system: SNB-75
[14] = test system: A498
[15] = test system: SNB-19
[16] = test system: SR
[17] = test system: SF-539
[18] = test system: Malme-3M
[19] = test system: EKVX
[20] = test system: NCI-H23
[21] = test system: NCI/ADR-RES
[22] = test system: U-251
[23] = test system: OVCAR-5
[24] = test system: HT-29
[25] = test system: HOP-92
[26] = test system: HCT-15
[27] = test system: MDA-MB-435
[28] = test system: TK-10
[29] = test system: OVCAR-4
[30] = test system: DU-145
[31] = test system: UO-31
[32] = test system: SN12C
[33] = test system: PC-3
[34] = test system: M14
[35] = test system: HCT-116
[36] = test system: IGROV-1
[37] = test system: CCRF-CEM
[38] = test system: SW-620
[39] = test system: OVCAR-8
[40] = test system: HL-60
[41] = test system: NCI-H226
[42] = test system: RXF 393
[43] = test system: HCC 2998
[44] = test system: MCF7
[45] = test system: SF-268
[46] = test system: BT-549
[47] = test system: SK-MEL-28
[48] = test system: KM12
[49] = test system: MDA-N
[50] = test system: SF-295
[51] = test system: UACC-62
[52] = test system: HOP-62
[53] = test system: SK-OV-3
[54] = test system: NCI-H460
[55] = test system: CAKI-1
[56] = test system: RPMI-8226
[57] = test system: SK-MEL-5
[58] = test system: Hs-578T
[59] = test system: SK-MEL-2

Measured: GI50

CCOC(=N)n1c(=O)n(C2=NCCN2)c2ccccc21
> 100 µM: [26]
inactive: [1] > 100 µM | [2] > 100 µM | [3] > 100 µM | [4] > 100 µM | [5] > 100 µM | [6] > 100 µM | [7] > 100 µM | [8] > 100 µM | [9] > 100 µM | [10] > 100 µM | [11] > 100 µM | [12] > 100 µM | [13] 31.2 µM | [14] > 100 µM | [15] > 100 µM | [16] > 100 µM | [17] > 100 µM | [18] > 100 µM | [19] > 100 µM | [20] > 100 µM | [21] > 100 µM | [22] > 100 µM | [23] > 100 µM | [24] > 100 µM | [25] > 100 µM | [27] > 100 µM | [28] > 100 µM | [29] > 100 µM | [30] > 100 µM | [31] > 100 µM | [32] > 100 µM | [33] > 100 µM | [34] > 100 µM | [35] > 100 µM | [36] > 100 µM | [37] > 100 µM | [38] > 100 µM | [39] > 100 µM | [40] > 100 µM | [41] > 100 µM | [42] > 100 µM | [43] > 100 µM | [44] > 100 µM | [45] > 100 µM | [46] > 100 µM | [47] > 100 µM | [48] > 100 µM | [49] > 100 µM | [50] > 100 µM | [51] > 100 µM | [52] > 100 µM | [53] > 100 µM | [54] > 100 µM | [55] > 100 µM

Cc1c(Cl)c(S(N)(=O)=O)cc(S(N)(=O)=O)c1NC(=O)c1ccc(Cl)cc1
> 100 µM: [26]
inactive: [1] > 100 µM | [3] > 100 µM | [4] > 100 µM | [5] > 100 µM | [6] > 100 µM | [7] > 100 µM | [56] > 100 µM | [8] > 100 µM | [9] > 100 µM | [10] > 100 µM | [11] > 100 µM | [12] > 100 µM | [13] > 100 µM | [14] > 100 µM | [15] > 100 µM | [18] > 100 µM | [20] > 100 µM | [21] > 100 µM | [22] > 100 µM | [23] > 100 µM | [24] > 100 µM | [25] > 100 µM | [27] > 100 µM | [28] > 100 µM | [29] > 100 µM | [30] > 100 µM | [31] > 100 µM | [32] > 100 µM | [33] > 100 µM | [34] > 100 µM | [35] > 100 µM | [36] > 100 µM | [37] > 100 µM | [38] > 100 µM | [39] > 100 µM | [40] > 100 µM | [41] > 100 µM | [42] > 100 µM | [43] > 100 µM | [44] > 100 µM | [45] > 100 µM | [46] > 100 µM | [47] > 100 µM | [48] > 100 µM | [49] > 100 µM | [50] > 100 µM | [57] > 100 µM | [51] > 100 µM | [52] > 100 µM | [53] > 100 µM | [58] > 100 µM | [54] > 100 µM | [55] > 100 µM

C/C(=N\Nc1nc2ccccc2s1)c1ncccn1
0.0215 µM: [26]
inactive: [14] 3.13 µM
active: [1] < 0.0205 µM | [2] < 0.0179 µM | [3] 0.141 µM | [4] 0.0128 µM | [5] < 0.0215 µM | [6] 0.0336 µM | [7] < 0.01 µM | [56] 0.0775 µM | [8] < 0.0501 µM | [9] < 0.01 µM | [10] < 0.01 µM | [12] < 0.01 µM | [13] 0.617 µM | [15] 0.316 µM | [17] 0.0757 µM | [18] 0.0505 µM | [19] < 0.0111 µM | [20] 0.0614 µM | [21] 0.0172 µM | [59] 0.92 µM | [22] < 0.0196 µM | [23] 0.415 µM | [24] < 0.01 µM | [25] < 0.0276 µM | [27] 0.363 µM | [30] 0.258 µM | [31] 0.022 µM | [32] < 0.0204 µM | [33] 0.118 µM | [34] < 0.0194 µM | [35] < 0.0193 µM | [36] 0.0183 µM | [37] 0.1 µM | [38] < 0.0154 µM | [39] < 0.016 µM | [40] < 0.01 µM | [41] < 0.0185 µM | [42] 1.04 µM | [43] 0.953 µM | [44] 0.0164 µM | [45] 0.0345 µM | [46] 0.346 µM | [47] 0.179 µM | [48] 0.128 µM | [50] 0.11 µM | [57] 0.03 µM | [51] 0.101 µM | [52] 0.131 µM | [53] 0.103 µM | [58] 0.59 µM | [54] 0.04 µM | [55] < 0.01 µM
